Experimental data taken from patent US20060135480A1, “Derivatives of succinic and glutaric acids and analogs thereof useful as inhibitors of phex” (Enobia Pharma, priority 2002, published 2006).

Molecular target: T1, sPHEX (Homo sapiens, UniProt P78562)
T1 construct: The soluble form of the metallopeptidase PHEX (sPHEX) was purified to homogeneity; made in house
T1 sequence (P78562 53-749 limits assumed): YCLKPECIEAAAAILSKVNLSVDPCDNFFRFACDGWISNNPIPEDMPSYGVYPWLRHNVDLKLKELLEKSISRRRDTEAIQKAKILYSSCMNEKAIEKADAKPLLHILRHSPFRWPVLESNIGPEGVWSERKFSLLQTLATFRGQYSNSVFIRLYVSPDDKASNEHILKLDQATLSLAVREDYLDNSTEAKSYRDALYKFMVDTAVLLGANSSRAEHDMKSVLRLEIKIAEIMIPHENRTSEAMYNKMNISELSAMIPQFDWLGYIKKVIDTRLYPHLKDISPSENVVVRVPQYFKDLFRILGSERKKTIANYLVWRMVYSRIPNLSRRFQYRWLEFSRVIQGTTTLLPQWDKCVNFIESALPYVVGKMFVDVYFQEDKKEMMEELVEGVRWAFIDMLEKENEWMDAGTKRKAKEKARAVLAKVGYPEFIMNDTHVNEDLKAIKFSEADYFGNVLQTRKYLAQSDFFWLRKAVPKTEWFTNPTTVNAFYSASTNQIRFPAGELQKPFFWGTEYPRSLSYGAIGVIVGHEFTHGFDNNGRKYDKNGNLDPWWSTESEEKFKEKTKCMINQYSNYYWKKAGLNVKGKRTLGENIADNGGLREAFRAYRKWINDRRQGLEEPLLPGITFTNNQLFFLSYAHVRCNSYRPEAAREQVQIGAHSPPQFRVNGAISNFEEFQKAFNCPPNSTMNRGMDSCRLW
Assay: sPHEX inhibitor IC50 determination using a fluorogenic substrate (Abz-GFSDYK-Dnp, S3)
Assay type: biochemical
Conditions: fluorogenic substrate 20 μM, 100 ng sPHEX, pH 6.5
Experimental: The soluble form of the metallopeptidase PHEX (sPHEX) was purified to homogeneity according to the methods of Boileau and Crine (WO 00/50580). sPHEX quantity was measured with the Bradford assay (BioRad) using BSA as a standard.
sPHEX activity was determined using a fluorogenic substrate in which an increase of fluorescence was proportional to substrate conversion to products.
S3 was synthesized at Dr. Gilles Lajoie's laboratories (University of Western Ontario, Canada) by standard solid phase peptide synthesis. The fluorescent reaction product was excited at 320 nm to fluoresce at 420 nm. Fluorescence was recorded at 420 nm every five minutes over a one-hour period on a fluorescence plate reader (Perkin-Elmer, HTS-7000) to calculate the initial rate of the reaction. Typically, the reaction was carried out in 200 μl of buffer M (50 mM Mes(NaOH) pH 6.5, 150 mM NaCl) containing 100 ng of purified sPHEX and 20 μM of fluorigenic substrate to initiate the reaction. Enzymatic activity was determined by subtracting either the initial rate of substrate in buffer (solvolysis), or the typical reaction rate in which 5 mM EDTA was added prior to initiating the reaction.
sPHEX inhibitor IC50 determinations were done using the tested inhibitor at various concentrations coming from a serial dilution (usually ranging from 10^−3 M to 10^−12 M) in the reaction described above. IC50 values were calculated using the iterative four parameters non-linear regression formula from the GraphPad™ software (Prism).

| IC50 [nM] | Compound |
| --- | --- |
| 1700 | O=C(O)CC(CC(=O)NO)C(=O)NCCCCCO (stereo not drawn) [Example 148, 4-Hydroxycarbamoyl-3-(5-hydroxy-pentylcarbamoyl)-butyric acid] |
| 9700 | O=C(O)C[C@H](NC(CCc1ccccc1)P(=O)(O)O)C(=O)N[C@@H](Cc1c[nH]c2ccccc12)C(=O)O (stereo partly drawn) [Example 162, N-[1-carboxy-2-(1H-indol-3-yl)-ethyl]-3-(3-phenyl-1-phosphono-propylamino)-succinic acid] |
| 320 | O=C(O)CC[C@H](NC(=O)[C@@H](S)Cc1ccccc1)C(=O)N[C@@H](Cc1c[nH]c2ccccc12)C(=O)O [Example 114] |
| 5 | CC(C)[C@H](S)C(=O)N[C@@H](CC(=O)O)C(=O)N[C@@H](Cc1c[nH]c2ccccc12)C(=O)O [Example 92, N-[1-Carboxy-2-(1H-indol-3-yl)-ethyl]-3-(2-mercapto-3-methyl-butyrylamino)-succinamic acid] |
| 22 | O=C(O)C[C@H](NC(=O)[C@@H](S)Cc1c[nH]c2ccccc12)C(=O)N[C@@H](Cc1c[nH]c2ccccc12)C(=O)O [Example 103, N-[1-Carboxy-2-(1H-indol-3-yl)-ethyl]-3-[3-(1H-indol-3-yl)-2-mercapto-propionylamino]-succinamic acid] |
| 15 | O=C(O)C[C@H](NC(=O)[C@@H](S)Cc1ccc2ccccc2c1)C(=O)N[C@@H](Cc1c[nH]c2ccccc12)C(=O)O [Example 104, N-[1-Carboxy-2-(1H-indol-3-yl)-ethyl]-3-(2-mercapto-3-naphthalen-2-yl-propionylamino]-succinamic acid] |
| 54 | O=C(O)CC(CC(=O)NO)C(=O)NCC(c1ccccc1)c1ccccc1 (stereo not drawn) [Example 142, 3-(2,2-Diphenyl-ethylcarbamoyl)-4-hydroxycarbamoyl-butyric acid] |
| 140 | O=C(O)C[C@H](NC(=O)[C@@H](S)Cc1ccccc1)C(=O)NCCc1c[nH]c2ccccc12 [Example 118, N-[2-(1H-indol-3-yl)l-ethyl]-3-(2-mercapto-3-phenyl-propionylamino)-succinamic acid] |
| 240 | O=C(O)CC(CC(=O)NO)C(=O)NCCc1ccc(-c2ccccn2)cc1 (stereo not drawn) [Example 132, 4-Hydroxycarbamoyl-3-[2-(4-pyridin-2-yl-phenyl)-ethylcarbamoyl]-butyric acid] |
| 860 | O=C(O)CC(CC(=O)NO)C(=O)NCCOc1ccccc1 (stereo not drawn) [Example 138, 4-Hydroxycarbamoyl-3-(2-phenoxy-ethylcarbamoyl)-butyric acid] |
| 7 | CCCC[C@H](S)C(=O)N[C@@H](CC(=O)O)C(=O)N[C@@H](Cc1c[nH]c2ccccc12)C(=O)O [Example 95, N-[1-Carboxy-2-(1H-indol-3-yl)-ethyl]-3-(2-mercapto-hexanoylamino)-succinamic acid] |
| 4 | C[C@H](O)[C@H](S)C(=O)N[C@@H](CC(=O)O)C(=O)N[C@@H](Cc1c[nH]c2ccccc12)C(=O)O [Example 94, N-[1-Carboxy-2-(1H-indol-3-yl)-ethyl]-3-(3-hydroxy-2-mercapto-butyrylamino)-succinamic acid] |
| 7 | O=C(O)C[C@H](NC(=O)[C@@H](S)Cc1ccccc1)C(=O)N[C@@H](Cc1ccccc1)C(=O)O [Example 109, N-[1-Carboxy-2-phenyl-ethyl)-3-(2-mercapto-3-phenyl-propionylamino)-succinamic acid] |
| 20 | O=C(O)C[C@H](NC(=O)[C@@H](S)CC1CCCCC1)C(=O)N[C@@H](Cc1c[nH]c2ccccc12)C(=O)O [Example 102, N-[1-Carboxy-2-(1H-indol-3-yl)-ethyl]-3-(3-cyclohexyl-2-mercapto-propionylamino)-succinamic acid] |
| 18 | COc1ccc(C[C@H](S)C(=O)N[C@@H](CC(=O)O)C(=O)N[C@@H](Cc2c[nH]c3ccccc23)C(=O)O)cc1 [Example 101, N-[1-Carboxy-2-(1H-indol-3-yl)ethyl]-3-[2-mercapto-3-(methoxy-phenyl)-propionylamino]-succinamic acid] |
